One test relates to HeLa cells. Briefly: 2-AG accumulation assay using HeLa cells. The conditions noted are these: Homo sapiens, HeLa cell homogenate, 2-AG accumulation relative to MAFP. It is filed as cell-based.
Test [1] deals with Male Sprague Dawley rats. Briefly: Chronic constriction injury (CCI)-induced model of neuropathic pain, acetone-induced hypersensitivity. It counts as in vivo. The note with it: HCl salt, 30 mg/kg oral dosing in 20% HPbCD. An excerpt: Male Sprague Dawley rats (225-450 g; n=5-8/treatment) were used to evaluate the ability of selected compounds of the Formula (I) to reverse CCI-induced cold hypersensitivity. Four loose ligatures of 4-0 chromic gut were surgically placed around the left sciatic nerve under inhalation anesthesia as described by Bennett et al (Bennett G J, Xie Y K. Pain 1988, 33(1): 87-107). Fourteen to 35 days following CCI surgery, subjects were placed in elevated observation chambers containing wire mesh floors, and five applications of acetone (0.05 mL/application separated by approximately 5 minutes) were spritzed onto the plantar surface of the paw using a multidose syringe. An abrupt withdrawal or lifting of the paw was considered a positive response. The number of positive responses was recorded for each rat over the five trials. Following baseline withdrawal determinations, compounds of formula (I) were administered in an appropriate vehicle, such as hydroxypropyl-β-cyclodextrin (HP β CD), methylcellulose, Methocel, 10% Solutol, or H2O, or the like, by the appropriate route, i.p. or p.o. The number of withdrawals were re-determined 1 to 4 h after compound administration. Results are presented as a percent inhibition of shakes, which was calculated for each subject as [1-(test compound withdrawals/pre-test withdrawals)]×100 and then averaged by treatment.

The subject of test [2] is Male Sprague Dawley rats. Briefly: Visceral hyperalgesia model (colorectal distension, zymosan colitis). It is filed as in vivo. The conditions noted are these: 30 mg/kg, s.c.; 20 min after dosing; vehicle-treated rats 239.6±28.9% of control. As for the experimental part: This protocol uses barostat-controlled, isobaric colorectal distensions (CRD) in rats to evaluate the potency and efficacy of test compounds in treating visceral hyperalgesia. Male Sprague Dawley rats, weighing 275-350 g, (Charles River Labs) were housed 2-4/cage in a temperature and humidity controlled room with a 12 h/12 h light/dark cycle and ad libitum access to food and water. One day after release from quarantine, rats were acclimated to progressively longer (30 min and, 4 h later, 45 min) periods of simple restraint in plexiglass devices (G-3, rat ECU; Braintree Scientific; Braintree Mass.). The rats were returned to their home cage overnight. […] The balloon pressure, which represents intracolonic pressure, was continuously recorded. […]
The following morning, colitis was induced by the intracolonic instillation of a 1.5-mL bolus of 2.5% (w/v) zymosan A (from Saccharomyces cerevisiae; Sigma Chemical Co., St. Louis) in 30% ethanol under light 70% CO2: 30% O2 anesthesia. […] The identical CRD stimuli were applied, and manometric VMRs were recorded and analyzed as described for the control phase of the experiment. […] CRD stimuli at 45 mmHg elicited peak responses in the control (pre-zymosan) condition; therefore, the responses of each rat were calculated as a percent of the manometric VMR at that pressure, recorded the day before induction of colitis; thus, each rat served as its own control. […]

A further test deals with rats. Briefly: CFA-induced paw radiant heat hypersensitivity. It is filed as in vivo, rat. The note with it: HCl salt in 20% HPβCD, treatment time 30 min. How it is done: Each rat was placed in a test chamber on a thermally controlled glass surface and allowed to acclimate for approximately 10 min. A radiant thermal stimulus (beam of light) was then focused through the glass onto the plantar surface of the hind paw. The thermal stimulus was automatically shut off by a photoelectric relay when the paw was moved or when the cut-off time was reached (20 sec). An initial (baseline) response latency to the thermal stimulus was recorded for each animal prior to the injection of CFA. 24 h following intraplantar CFA injection, the response latency to the thermal stimulus was then re-evaluated and compared to the animal's baseline response time. […] Immediately following the post-CFA latency assessment, test compound or vehicle (usually solutol, hydroxypropyl methylcellulose, hydroxypropyl beta-cyclodextrin or PEG-400) was administered i.p. or p.o. to rats. Post-compound treatment withdrawal latencies were assessed at fixed time intervals, typically 30, 60 and 120 minutes. The percent reversal of hypersensitivity is calculated according to the following formula: % reversal=(post dose latency-predoselatency)/(baseline (pre CFA) latency-predose latency)×100.
Compound #12 (as its corresponding HCl salt) was administered in a solution of 20% HPβCD, at a dose of 30 mg/kg, i.p. and a treatment time of 30 min.

Read-outs that look alike come from different tables or passages of the source.

By ED50 is commonly meant the midpoint of the dose-response relation.

Take `O=C(c1ccc(-c2ccccc2)cc1)N1CC(N2CCN(c3ncccn3)CC2)C1` [Compound #12, Biphenyl-4-yl-[3-(4-pyrimidin-2-yl-piperazin-1-yl)-azetidin-1-yl]-methanone]: the Emax at 10 µM in the test with HeLa cells (compound @10 μM (second of two columns with the same head), read-out: Ex. 5 % MAFP @10 μM (second column)) stood at 108%; in the test on HeLa cells (compound @10 μM as printed (first of two columns with the same head), read-out: Ex. 5 % MAFP @10 μM (first column)) it was 63.1%. The “Percent Inhibition (of shakes)” value with Male Sprague Dawley rats [1] (pretreatment time 1 hr) is reported as 57.1%; with Male Sprague Dawley rats [1] (pretreatment time 2 hr) it was 74.3%; with Male Sprague Dawley rats [1] (pretreatment time 3 hr), 80.0%; in the test with Male Sprague Dawley rats [1] (pretreatment time 4 hr) it was 48.6%. For the same compound, the “hyperalgesic response (manometric VMR) to 45 mmHg CRD” value in the test on Male Sprague Dawley rats [2] is 103.8±22.1 % of control. Further, in the test on rats (30 mg/kg, i.p.), the reversal of hypersensitivity is given as 90.3%. For the same compound, the ED50 in the test with rats (Rattus norvegicus, ip, 0.5 h) was 0.9 mg/kg.

The record behind these values is patent publication US20130184251A1, “HETEROAROMATIC AND AROMATIC PIPERAZINYL AZETIDINYL AMIDES AS MONOACYLGLYCEROL LIPASE INHIBITORS” (Janssen Pharmaceutica, NV, priority 2009, published 2013).
